The source of these data is article PMC2929646 (Nutrition research (New York, N.Y.), 2010).

The subject of data set [1] is Caco-2 monolayers. The following applies: cited from earlier work.
For data set [2], the system named is Caco-2 monolayers. The following applies: cited from earlier work. This is another data set of the same source.
Data set [3] concerns Caco-2 cells. To be noted: media containing 50 µM ECG; cited from earlier work.
Data set [4] has as its system Caco-2 cells. The following applies: cited from earlier work.
A short description of data set [5]: Stability in cell-free experimental media. It is filed as physicochemical. To be noted: cell-free media (pH 5 PBS), 37°C, media 5 (EGCG), media 2 (dimers), mean ± SEM, n=4.
For data set [6], the system named is Caco-2 human intestinal cells (TC7 clone). Put plainly: Accumulation of catechin monomers and auto-oxidation dimers by Caco-2 monolayers.
The subject of data set [7] is human histolytic lymphoma U937 cells. The following applies: cited from earlier work.
In data set [8] the test system is U937 cells. To be noted: cited from earlier work.
Data set [9] relates to lipase. The following applies: cited from earlier work.
Data set [10] concerns the target rat squalene epoxidase. The following applies: relative to EGCG; cited from earlier work.
Data set [11] has as its system fibrosarcoma HT1080 cells. The following applies: cited from earlier work.
The conditions of data set [12]: cited from earlier work.
In data set [13] the test system is Caco-2 human intestinal cells. Put plainly: Parallel accumulation and retention experiment in Caco-2 monolayers. To be noted: after 3 h accumulation, 1 h in catechin/dimer-free PBS; mean ± SEM, n=4. The class given is in vitro ADME.
The conditions of data set [14]: cited from earlier work. This is another data set of the same source.

Where two headings read alike, the source gives them in different places.

For the molecule `Oc1cc(O)c2c(c1)O[C@H](c1ccc(O)c(O)c1)[C@@H](O)C2` [(+)-C, (+)-catechin], the “apparent apical → basolateral permeability” value in data set [1] was 0.8 ×10⁻⁶ cm/s. In data set [2], the membrane adsorption is reported as 0.15–0.2 % transmembrane resistance, Ω cm^2.
`O=C(O[C@@H]1Cc2c(O)cc(O)cc2O[C@@H]1c1ccc(O)c(O)c1)c1cc(O)c(O)c(O)c1` [ECG, (−)-epicatechin gallate]: the 1 h accumulation result in data set [3] is recorded as “roughly 3 nmol/mg protein”.
With `Oc1cc(O)c2c(c1)O[C@H](c1cc(O)c(O)c(O)c1)[C@H](O)C2` [EGC, (−)-epigallocatechin], the 3 h accumulation in data set [4] was 0.1–0.5 nmol/mg protein.
`O=C(O[C@@H]1Cc2c(O)cc(O)cc2O[C@@H]1c1cc(O)c(O)c(O)c1)c1cc(O)c(O)c(O)c1` [EGCG, (−)-epigallocatechin gallate]: the “Stability over 3 h (percent of initial concentration)” value in data set [5] was determined as 91.8 ± 6.4%. The “net accumulation at 3 h (amount per mg protein)” value in data set [6] (37°C, pH 5 PBS, media from EGCG + EGC (media 3, 6)) is on record as 1.89 ± 0.15 nmol/mg. Besides, the “Three h accumulation (range over monomer media)” value in [6] (3 h, range over the media that contain the monomer) is given as 1.24–1.35%. Besides, the 3 h accumulation in [4] (previously reported by the authors) was 0.2–2.5 nmol/mg protein.
For `O=C(O[C@@H]1Cc2c(O)cc(O)cc2O[C@@H]1c1cc(O)c(O)c(O)c1-c1c([C@H]2Oc3cc(O)cc(O)c3C[C@H]2OC(=O)c2cc(O)c(O)c(O)c2)cc(O)c(O)c1O)c1cc(O)c(O)c(O)c1` [THSN A], the induction of apoptosis result in data set [7] is “induced apoptosis”. In addition, the “inhibition of growth compared with EGCG” value in data set [8] is “more effective at inhibiting the growth of U937 cells than EGCG”. In [9], the “inhibition of lipase compared with EGCG” value is reported as “more effective inhibitor of lipase than EGCG”. In addition, the “IC50 value, fold lower than EGCG” value in data set [10] was 5 ×.
Turning to `O=C(O[C@@H]1Cc2c(O)cc(O)cc2O[C@@H]1c1cc(O)c(O)c(O)c1-c1c([C@H]2Oc3cc(O)cc(O)c3C[C@H]2OC(=O)c2cc(O)c(O)c(O)c2)cc(O)c(O)c1O)c1cc(O)c(O)c(O)c1` [THSN D], the “induction of apoptosis compared with EGCG” value in data set [7] is given as “more effective than EGCG”. Moreover, the “inhibition of invasive activity compared with EC, EGC and EGCG” value in data set [11] was “better inhibitor of the invasive activity of fibrosarcoma HT1080 cells than EC and EGC, but was less effective than EGCG”.
Take `Oc1cc(O)c2c(c1)O[C@H](c1ccc(O)c(O)c1)[C@@H](O)[C@@H]2c1c(O)cc(O)c2c1O[C@H](c1ccc(O)c(O)c1)[C@@H](O)C2` [procyanidin dimer B3, (+)-C-(4α→8)-(+)-C]: the “apparent apical → basolateral permeability” value in data set [1] was 2 ×10⁻⁶ cm/s.
theasinensins (THSNs) A/D [THSNs A/D]: the “O2^•− scavenging activity compared with EGCG” value in [12] is reported as “equal to or greater than EGCG”. For the same molecule, in data set [13], the “1 h Retention, Absolute” value turned out to be 7.08 ± 2.2 pmol/well. In addition, in data set [5], the “Stability over 3 h (percent of initial concentration)” value was 100 ± 0.36%. In addition, the “Fe^2+ chelation activity compared with EGCG” value in data set [14] is recorded as “equal to or greater than EGCG”.
